Test results: BindingDB's records for doi:10.1016/s0014-2999(98)00241-6 (Mcgill University, 1998)

Target: Norepinephrine transporter (Rattus norvegicus, UniProt Q9JIA2)

Structure (SMILES)	Ki [nM]
c1ccc2c(CCC3CCNCC3)c[nH]c2c1	2760
COCCCC/C(=N\OCCN)c1ccc(C(F)(F)F)cc1 [(1E)-5-methoxy-1-[4-(trifluoromethyl)phenyl]pentan-1-one O-(2-aminoethyl)oxime]	1360
